These results are taken from patent US20210317102A1, “INHIBITORS OF INTEGRATED STRESS RESPONSE PATHWAY” (Praxis Biotech LLC, priority 2019, published 2021).

One test deals with ARH cells. In words: Secretion of Ig-kappa by ARH cells. The note with it: 1 µM of compound 10 for 24 hours, vs vehicle (0.1% DMSO). In kind it is cell-based. Here is the method: ARH cells were maintained at 37° C. and 5% CO2 and seeded at a density of 500,000 cell/well in RPMI supplemented with, 100 U/ml penicillin, and 100 μg/ml streptomycin in a 12-well culture plate. Cells were treated either with vehicle (0.1% DMSO) or […] of compound 10 for 24 hours. Then, culture media with cells were recovered in microtubes and centrifuged at 500 g for 5 minutes. Supernatants (SN) which contain secreted proteins were extracted and protease and phosphatase inhibitors (Roche) were added to each sample. SN were centrifuged at 2,000 g for 10 min to discard any cellular debris and 900 μL SN were transferred to empty microtubes with 400 μL methanol by mixing well. 200 μL of chloroform was added to the mix and then samples were centrifuged at 14,000 g for 2 minutes. Top aqueous layer was discarded by pipetting off and 400 μL methanol was added to each sample by mixing well. Samples were then centrifuged at 17,000 g for 8 minutes and methanol was discarded by pipetting off without disturbing the protein pellet. […] Quantification of protein bands was done by densitometry using ImageJ software.
Percent of secreted Ig kappa light chain by ARH cells treated with vehicle or compound 10 from three independent experiments is shown in FIG. 4. Percentage was calculated as the percent relative to Ig kappa secretion levels from ARH cells treated with vehicle which correspond to 100%.

A further test has as its system CHO cells. Nature of the test: Protein secretion in a CHO cell-based assay. Conditions: 1 μM compound 10, media without FBS, 24 h, vs vehicle. Here is the method: CHO cells were maintained at 37° C. and 5% CO2 in DMEM supplemented with 10% fetal bovine serum (FBS), 2 mM L-glutamine, 100 U/ml penicillin, and 100 μg/ml streptomycin. After reaching 80% of confluence, cells were detached and seeded on 6-well plates in complete media, allowed to recover for 48 h. Cells were then washed three times with PBS and treated with compound 10 at […] in 1 mL of media without FBS for 24 h. Treatment with 0.1% DMSO was used as control (vehicle). After 24 h treatment, supernatant (SN) which contains secreted proteins was extracted and protease and phosphatase inhibitors (Roche) were added to each sample. SN were centrifuged at 2,000 g for 10 min to discard any cellular debris and 900 μL SN were transferred to empty microtubes with 400 μL methanol by mixing well. 200 μL of chloroform was added to the mix and then samples were centrifuged at 14,000 g for 2 minutes. Top aqueous layer was discarded by pipetting off and 400 μL methanol is added to each sample by mixing well. Samples were then centrifuged at 17,000 g for 8 minutes and methanol was discarded by pipetting off without disturbing the protein pellet. […] Secreted proteins were analyzed by SDS-PAGE and Coomassie staining. […] Percentage was calculated as the percent relative to protein secretion levels from CHO cells treated with vehicle which correspond to 100%.

In test [1] the test system is Chinese hamster ovary (CHO) cells. In words: Protein synthesis assay (puromycin incorporation, western blot). In kind it is cell-based. Conditions: Cricetulus griseus; unstressed CHO cells (without Tg), 1 μM test compound, 2 hours; media alone = 100%; read-out: % Protein synthesis relative to untreated (1 μM test compound). In a few lines: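 CHO cells treated 2 h with 1 μM compound alone, or with 300 nM thapsigargin plus 1 μM compound, then pulsed 30 min with 10 μg/ml puromycin. Puromycin incorporation read by anti-puromycin western blot with densitometry. Unstressed values normalized to media alone (100%); stressed recovery normalized to media alone (100%) and Tg alone (0%).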

Consider `O=C(COc1ccc(Cl)c(F)c1)N[C@H]1CC[C@H](CNC(=O)c2ccc3cc(Cl)ccc3n2)CC1` [Compound 10, trans-6-chloro-N-((4-(2-(4-chloro-3-fluorophenoxy)acetamido)cyclohexyl)methyl)quinoline-2-carboxamide], for which the “Secretion of Ig kappa light chain” value in the test on ARH cells was “increased the secretion of the immunoglobulin light chain kappa”. In the test with CHO cells, the “Secretion of proteins in CHO cells” value is on record as “increased secretion of proteins”. In addition, the activity at 1 µM in test [1] turned out to be 229%.
